The numbers were not newly measured in PubChem BioAssay AID1259410 (Chemical Carcinogenesis Research Information System (CCRIS), 2018), which cites them from elsewhere.

Molecules are shown by their SMILES.

This series deals with rodent tumor promotion studies, tumor incidence. The experiment in a line: CCRIS tumor promotion studies.

On to `CC[C@@H](C)[C@H](NC(=O)CN)C(=O)N[C@H](C(=O)N[C@@H](CCC(=O)O)C(=O)N[C@@H](CCC(N)=O)C(=O)N[C@H]1CSSC[C@H]2NC(=O)[C@H]([C@H](C)CC)NC(=O)[C@H](CO)NC(=O)[C@H]([C@H](C)O)NC(=O)[C@H](CSSC[C@H](NC(=O)[C@H](CC(C)C)NC(=O)[C@H](Cc3c[nH]cn3)NC(=O)[C@H](CCC(N)=O)NC(=O)[C@@H](NC(=O)[C@@H](NC(=O)[C@@H](N)Cc3ccccc3)C(C)C)C(N)=O)C(=O)NCC(=O)N[C@@H](CO)C(=O)N[C@@H](Cc3c[nH]cn3)C(=O)N[C@@H](CC(C)C)C(=O)N[C@@H](C(C)C)C(=O)N[C@@H](CCC(=O)O)C(=O)N[C@@H](C)C(=O)N[C@@H](CC(C)C)C(=O)N[C@@H](Cc3ccc(O)cc3)C(=O)N[C@@H](CC(C)C)C(=O)N[C@@H](C(C)C)C(=O)N[C@H](C(=O)NCC(=O)N[C@@H](CCC(=O)O)C(=O)N[C@@H](CCCNC(=N)N)C(=O)NCC(=O)N[C@@H](Cc3ccccc3)C(=O)N[C@@H](Cc3ccccc3)C(=O)N[C@@H](Cc3ccc(O)cc3)C(=O)N[C@H](C(=O)N3CCC[C@H]3C(=O)N[C@@H](CCCCN)C(=O)N[C@H](C(=O)O)[C@H](C)O)[C@H](C)O)CSSC[C@@H](C(=O)N[C@@H](CC(N)=O)C(=O)O)NC(=O)[C@H](Cc3ccc(O)cc3)NC(=O)[C@H](CC(N)=O)NC(=O)[C@H](CCC(=O)O)NC(=O)[C@H](CC(C)C)NC(=O)[C@H](CCC(N)=O)NC(=O)[C@H](Cc3ccc(O)cc3)NC(=O)[C@H](CC(C)C)NC(=O)[C@H](CO)NC2=O)NC1=O)C(C)C`, for which the outcome (Carcinogen: 7,12-DIMETHYLBENZ[A]ANTHRACENE, 57-97-6, Doses [Carcinogen]: 20 MG IN 4 ML OLIVE OIL ONCE, Doses [Promoter]: 0, 10 I.U./D BEGINNING 4 WK POST CARCINOGEN DOSE AND CONTINUING FOR DURATION OF STUDY (STUDY DURATION: 6 MO), Route [Carcinogen]: GAVAGE, Route [Promoter]: SUBCUTANEOUS, Species: RAT, Strain/Sex: SWISS/FEMALE) is “mammary gland: tumor”.
On to `CCCCCCCCCC(=O)O[C@@H]1[C@@H](C)[C@@]2(O)[C@@H](C=C(CO)C[C@]3(O)C(=O)C(C)=C[C@@H]23)[C@@H]2C(C)(C)[C@]12OC(=O)CCCCCCCCC`, for which the outcome (Carcinogen: 7,12-DIMETHYLBENZ(A)ANTHRACENE, Doses [Carcinogen]: TOP, Route [Carcinogen]: DERMAL, Route [Promoter]: DERMAL, Species: MOUSE, Strain/Sex: MALE,FEMALE) is reported as “forestomach”.
In the case of `CC[C@H](C)[C@H](N)C(=O)O`, the outcome (Carcinogen: N-BUTYL-N-(4-HYDROXYBUTYL)NITROSAMINE, 3817-11-6, Doses [Carcinogen]: 0.05% IN DRINKING WATER FOR 4 WK, Doses [Promoter]: 0, 2% IN DIET BEGINNING POST CARCINOGEN TREATMENT AND CONTINUING FOR DURATION OF STUDY (STUDY DURATION: 40 WK), Route [Carcinogen]: ORAL, Route [Promoter]: ORAL, Species: RAT, Strain/Sex: F344/MALE) is reported as “bladder: carcinoma”.
For the molecule `CCOC(=O)C(C)(C)Oc1ccc(Cl)cc1`, the outcome is reported as “liver: hepatocellular adenoma” (Carcinogen: DIETHYLNITROSAMINE [55-18-5], Doses [Carcinogen]: 200 MG/KG BW ONCE (STUDY DURATION: 24 WK), Doses [Promoter]: 0, 3000 PPM IN DIET FOR 22 WK BEGINNING 2 WK POST CARCINOGEN DOSE AND 1 WK PRIOR TO 2/3 PARTIAL HEPATECTOMY (STUDY DURAT, Route [Carcinogen]: INTRAPERITONEAL, Route [Promoter]: ORAL, Species: RAT, Strain/Sex: F344/MALE); “liver: hepatocellular adenoma” (Carcinogen: DIETHYLNITROSAMINE [55-18-5], Doses [Carcinogen]: 200 MG/KG BW ONCE (STUDY DURATION: 48 WK), Doses [Promoter]: 0, 3000 PPM IN DIET FOR 46 WK BEGINNING 2 WK POST CARCINOGEN DOSE AND 1 WK PRIOR TO 2/3 PARTIAL HEPATECTOMY (STUDY DURAT, Route [Carcinogen]: INTRAPERITONEAL, Route [Promoter]: ORAL, Species: RAT, Strain/Sex: F344/MALE); “liver: hepatocellular adenoma” (Carcinogen: DIETHYLNITROSAMINE [55-18-5], Doses [Carcinogen]: 200 MG/KG BW ONCE (STUDY DURATION: 52 WK), Doses [Promoter]: 0, 3000 PPM IN DIET FOR 46 WK BEGINNING 2 WK POST CARCINOGEN DOSE AND 1 WK PRIOR TO 2/3 PARTIAL HEPATECTOMY (STUDY DURAT, Route [Carcinogen]: INTRAPERITONEAL, Route [Promoter]: ORAL, Species: RAT, Strain/Sex: F344/MALE); “liver: hepatocellular carcinoma” (Carcinogen: DIETHYLNITROSAMINE, 55-18-5, Doses [Carcinogen]: 10 MG/KG IN SALINE ONCE 24 HR AFTER RECEIVING 70% PARTIAL HEPATECTOMIES, Doses [Promoter]: 0, 0.01% IN DIET FOR DURATION OF STUDY BEGINNING 2 WK POST CARCINOGEN DOSE (STUDY DURATION: 18 MO), Route [Carcinogen]: GAVAGE, Route [Promoter]: ORAL, Species: RAT, Strain/Sex: SPRAGUE-DAWLEY/FEMALE); “liver: hepatocellular carcinoma” (Carcinogen: DIETHYLNITROSAMINE, 55-18-5, Doses [Carcinogen]: 100 PPM IN DRINKING WATER FOR 2 WK, Doses [Promoter]: 0, 0.5% IN DIET BEGINNING 1 WK POST LAST CARCINOGEN DOSE AND CONTINUING FOR DURATION OF STUDY (STUDY DURATION: 32 WK), Route [Carcinogen]: ORAL, Route [Promoter]: ORAL, Species: RAT, Strain/Sex: WISTAR/MALE); “liver: adenoma” (Carcinogen: DIETHYLNITROSAMINE, 55-18-5, Doses [Carcinogen]: 150 MG/KG BW ONCE, Doses [Promoter]: 0, 0.1% IN DIET FOR 37 WK BEGINNING 2 WK POST CARCINOGEN TREATMENT (STUDY DURATION: 39 WK), Route [Carcinogen]: INTRAPERITONEAL, Route [Promoter]: ORAL, Species: RAT, Strain/Sex: F344/MALE).
Regarding `CC(=O)OCC(COC(C)=O)OC(C)=O`, the outcome (Carcinogen: 7,12-Dimethylbenz(a)anthracene, 57-97-6, Doses [Carcinogen]: 100 ug in 100 ul acetone once at 6 wk of age, Doses [Promoter]: 0, 85 mg, daily for 5 d/wk beginning 1 wk after carcinogen administration for 35 wk, study duration 36 wk, Route [Carcinogen]: Dermal, Route [Promoter]: Dermal, Species: Mouse, Strain/Sex: ICR/Female) is “skin: none” and the outcome (Carcinogen: 7,12-Dimethylbenz(a)anthracene, 57-97-6, Doses [Carcinogen]: 100 ug in 100 ul acetone once at 6 wk of age, Doses [Promoter]: 0, 85 mg, twice daily for 5 d/wk beginning 1 wk after carcinogen administration for 35 wk, study duration 36 wk, Route [Carcinogen]: Dermal, Route [Promoter]: Dermal, Species: Mouse, Strain/Sex: ICR/Female) is given as “skin: none”.
For the molecule `O=C1[C@H]2CC=CC[C@H]2C(=O)N1SC(Cl)(Cl)Cl`, the outcome (Carcinogen: DIETHYLNITROSAMINE, 55-18-5, N-METHYL-N-NITROSOUREA, 684-93-5, N-BIS(2-HYDROXYPROPYL)NITROSAMINE, 53609-64-6, Carcinogen: DIETHYLNITROSAMINE, 55-18-5, N-METHYL-N-NITROSOUREA, 684-93-5, N-BIS(2-HYDROXYPROPYL)NITROSAMINE, 53609-64-6, Doses [Carcinogen]: 100 MG/KG DEN ONCE THEN 20 MG/KG MNU 2/WK FOR 2 WK FOLLOWED BY 0.1% DHPN IN DRINKING WATER FOR 2 WK, Doses [Promoter]: 0, 4000 PPM IN DIET BEGINNING POST CARCINOGEN TREATMENT AND CONTINUING FOR 16 WK (STUDY DURATION: 20 WK), Route [Carcinogen]: INTRAPERITONEAL, INTRAPERITONEAL, ORAL, Route [Carcinogen]: INTRAPERITONEAL, INTRAPERITONEAL, ORAL, Route [Promoter]: ORAL, Species: RAT, Strain/Sex: F344/MALE) was “kidney: adenoma”.
For `Cc1cc(O)c2c(c1)Cc1cccc(O)c1C2=O`, the outcome (Carcinogen: 7,12-DIMETHYLBENZ(A)ANTHRACENE, Doses [Carcinogen]: 10 NMOL ONCE, Doses [Promoter]: 50 UG 2/WK FOR 21 WK, Route [Carcinogen]: DERMAL, Route [Promoter]: DERMAL, Species: MOUSE, Strain/Sex: SENCAR/FEMALE) is reported as “integumentary system (skin): papilloma” and the outcome (Carcinogen: 7,12-DIMETHYLBENZ[A]ANTHRACENE, 57-97-6, Doses [Carcinogen]: 6.4 UG ONCE, Doses [Promoter]: 0, 52.8 UG 1/WK FOR 10 WK BEGINNING 2 WK POST CARCINOGEN DOSE (STUDY DURATION: 32 WK), Route [Carcinogen]: DERMAL, Route [Promoter]: DERMAL, Species: MOUSE, Strain/Sex: SENCAR/FEMALE) is “skin: papilloma”.
`CC(C)NCC(O)c1ccc(O)c(O)c1` (stereo not drawn): the outcome (Carcinogen: N-NITROSOMORPHOLINE, 59-89-2, Doses [Carcinogen]: 175 MG/L IN DRINKING WATER FOR 8 WK, Doses [Promoter]: 0, 0.1 MG/KG BW IN OLIVE OIL 1/2 D FOR 13 WK BEGINNING SIMULTANEOUSLY WITH CARCINOGEN TREATMENT (STUDY DURATION: 13 WK), Route [Carcinogen]: ORAL, Route [Promoter]: SUBCUTANEOUS, Species: RAT, Strain/Sex: SPRAGUE-DAWLEY/MALE) was “liver: carcinoma”.
`CCCCCCCC/C=C\CCCCCCCC(=O)OC1CC2CCC1(C)C2(C)C` (stereo not drawn): under “Carcinogen: 7,12-DIMETHYLBENZ(A)ANTHRACENE, Doses [Carcinogen]: TOP, Route [Carcinogen]: DERMAL, Route [Promoter]: DERMAL, Species: MOUSE, Strain/Sex: FEMALE”, the outcome is reported as “integumentary system (skin)”.
For `C=CCC1(CC=C)C(=O)NC(=O)NC1=O`, the outcome (Carcinogen: N-NITROSODIETHYLAMINE, 55-18-5, Doses [Carcinogen]: 75 MG/KG BW IN 0.85% SALINE ONCE, Doses [Promoter]: 0, 440 PPM IN DIET FOR DURATION OF STUDY BEGINNING 2 WK POST CARCINOGEN DOSE (STUDY DURATION: 78 WK), Route [Carcinogen]: INTRAPERITONEAL, Route [Promoter]: ORAL, Species: RAT, Strain/Sex: F344/MALE) was “liver: adenoma, carcinoma”.
As for `Cc1ccc(O)c(C(C)(C)C)c1`, the outcome (Carcinogen: N-BUTYL-N-(4-HYDROXYBUTYL)NITROSAMINE, 3817-11-6, Doses [Carcinogen]: 0.5% IN DRINKING WATER FOR 4 WK, Doses [Promoter]: 0, 1% IN DIET FOR 32 WK BEGINNING 3 D POST CARCINOGEN TREATMENT (STUDY DURATION: 36 WK), Route [Carcinogen]: ORAL, Route [Promoter]: ORAL, Species: RAT, Strain/Sex: F344/MALE) is recorded as “bladder: carcinoma, papilloma”.
